Laboratory results taken from patent US20080206761A1, “Ex Vivo Gene Expression in Whole Blood as a Model of Assessment of Individual Variation to Dietary Supplements” (priority 2005, published 2008).

Assays:
Type in all cases: cell-based, human
IL-2 mRNA = experiment: PHA-induced IL-2 mRNA expression in heparinized whole blood ex vivo; conditions: for ΔΔCt (mean ± standard deviation, n = 3), IL-2 mRNA: supplement 30 min, concentrations per footnote; for effect on PHA-induced IL-2 expression, in words: summary over 7 subjects of Table I
Description: (§1) In this embodiment, phytohemagglutinin-induced gene expression of interleukin-2 (IL-2), interleukin-4 (IL-4), and tumor necrosis factor-α (TNF-α) were quantitated in the following manner. Fifty μL of heparinized whole blood was incubated with various dietary supplements for a period of 30 minutes. The following supplements were employed: vitamins A, C, and D, epigallocatechin gallate (from green tea), genistein (from soy), and curcumin (from the spice turmeric). Vitamin A is known to stimulate the immune system. […] Vitamin D appears to have protective effects against certain cancers. Epigallocatechin gallate is a powerful antioxidant, appears to reduce the multidrug resistance found in cancer cells, and preferentially induces apoptosis in neoplastic cells. Genistein has been found in some studies to have anticarcinogenic activity; possible mechanisms of action include upregulation of apoptosis, inhibition of angiogenesis, inhibition of DNA topoisomerase II and inhibition of protein tyrosine kinases. Curcumin has proapoptotic effects in neoplastic cells and interferes with the activity of the transcription factor NF-κB, which is often highly overexpressed in such cells.
(§2) After incubation with the dietary supplement, 100 μg/mL phytohemagglutinin (PHA) was added and incubation was continued for an additional 2 hours at 37° C. The concentration of each dietary supplement (see Table I, note) was slightly higher than reported blood levels. Then mRNA was purified, cDNA was synthesized, and the levels of IL-2, IL-4, and TNF-α were quantitated by TaqMan real time polymerase chain reaction (PCR) (see Holland, et al., “Detection of specific polymerase chain reaction product by utilizing the 5′ to 3′ exonuclease activity of Thermus aquaticus DNA polymerase,” Proc Natl Acad Sci USA 1991; 88: 7276-80), as described below.
(§3) The mRNA and cDNA were prepared from the whole blood that was exposed to the dietary components, as well as the whole blood which remained unexposed. In brief, home-made 96-well filterplates were placed over collection plates, and 150 μl 5 mM Tris, pH 7.4, was applied. Following centrifugation at 120×g for 1 min at 4° C., 50 μl of blood samples were applied to each well and immediately centrifuged at 120×g for 2 min at 4° C., followed by washing of each well with 300 μl PBS once with centrifugation at 2000×g for 5 min at 4° C. Then, 60 μl stock lysis buffer, containing for example 0.5% N-Lauroylsarcosine, 4×SSC, 10 mM Tris HCl, pH 7.4, 1 mM EDTA, 0.1% IGEPAL CA-630, and 1.791 M guanidine thiocyanate, supplemented with 1% 2-mercaptoethanol (Bio Rad, Hercules, Calif., USA), 0.5 mg/ml proteinase K (Pierce, Rockford, Ill., USA), 0.1 mg/ml salmon sperm DNA (5 Prime Eppendorf/Brinkmann, Westbury, N.Y., USA), 0.1 mg/ml E. coli tRNA (Sigma), a cocktail of 10 mM each of the specific reverse primers shown in Table 2, and standard RNA34 oligonucleotides, were applied to the filterplates, followed by incubation at 37° C. for 10 min. The filterplates were then placed over oligo(dT)-immobilized microplates (GenePlate, RNAture), and centrifuged at 2000×g for 5 min at 4° C. Following overnight storage at 4° C., the microplates were washed with 100 μl plain lysis buffer 3 times, followed by 150 μl of wash buffer (0.5 M NaCl, 10 mM Tris, pH 7.4, 1 mM EDTA) 3 times at 4° C. The cDNA was directly synthesized in each well by adding 30 μl of buffer containing 1×RT-buffer, 1.25 mM each of dNTP, 4 units rRNasin, and 80 units of MMLV reverse transcriptase (Promega) (without primers), and incubation at 37° C. for 2 hours. The specific primer-primed cDNA existed in solution, and oligo(dT)-primed cDNA stayed immobilized in the microplate. […]

IL-4 mRNA = experiment: PHA-induced IL-4 mRNA expression in heparinized whole blood ex vivo; conditions: for ΔΔCt (mean ± standard deviation, n = 3), IL-4 mRNA: supplement 30 min, then 100 μg/mL PHA 2 h, concentrations per footnote; for effect on PHA-induced IL-4 expression, in words: summary over 7 subjects of Table I
Description: as §1, §2, §3

TNF-α mRNA = experiment: PHA-induced TNF-α mRNA expression in heparinized whole blood ex vivo; conditions: for ΔΔCt (mean ± standard deviation, n = 3), TNFα mRNA: supplement 30 min, then 100 μg/mL PHA 2 h, concentrations per footnote; for effect on PHA-induced TNF-α expression, in words: summary over 7 subjects of Table I
Description: as §1, §2, §3

[1] = test system: CD32A mRNA (IgG Fc receptor); experiment: CD32A mRNA level in leukocytes after exposure of whole blood to dietary components (no stimulating agent); conditions: one individual; 3 hours at 37° C.; PBS control
Description: In brief, home-made 96-well filterplates were placed over collection plates, and 150 μl 5 mM Tris, pH 7.4, was applied. Following centrifugation at 120×g for 1 min at 4° C., 50 μl of blood samples were applied to each well and immediately centrifuged at 120×g for 2 min at 4° C., followed by washing of each well with 300 μl PBS once with centrifugation at 2000×g for 5 min at 4° C. […] The filterplates were then placed over oligo(dT)-immobilized microplates (GenePlate, RNAture), and centrifuged at 2000×g for 5 min at 4° C. Following overnight storage at 4° C., the microplates were washed with 100 μl plain lysis buffer 3 times, followed by 150 μl of wash buffer (0.5 M NaCl, 10 mM Tris, pH 7.4, 1 mM EDTA) 3 times at 4° C. […] The specific primer-primed cDNA existed in solution, and oligo(dT)-primed cDNA stayed immobilized in the microplate. […] Each gene was amplified in separate wells. The Ct was determined by analytical software (SDS, ABI).

[2] = Subject 1, then 100 μg/mL PHA 2 h 37° C., negative = increased expression
[3] = Subject 2, then 100 μg/mL PHA 2 h
[4] = Subject 3, then 100 μg/mL PHA 2 h
[5] = Subject 4, then 100 μg/mL PHA 2 h
[6] = Subject 5, then 100 μg/mL PHA 2 h
[7] = Subject 6, then 100 μg/mL PHA 2 h
[8] = Subject 7, then 100 μg/mL PHA 2 h

Compound	ΔΔCt (mean ± standard deviation, n = 3), IL-2 mRNA (IL-2 mRNA; [2])	ΔΔCt (mean ± standard deviation, n = 3), IL-2 mRNA (IL-2 mRNA; [3])	ΔΔCt (mean ± standard deviation, n = 3), IL-2 mRNA (IL-2 mRNA; [4])	ΔΔCt (mean ± standard deviation, n = 3), IL-2 mRNA (IL-2 mRNA; [5])	ΔΔCt (mean ± standard deviation, n = 3), IL-2 mRNA (IL-2 mRNA; [6])	ΔΔCt (mean ± standard deviation, n = 3), IL-2 mRNA (IL-2 mRNA; [7])	ΔΔCt (mean ± standard deviation, n = 3), IL-2 mRNA (IL-2 mRNA; [8])	ΔΔCt (mean ± standard deviation, n = 3), IL-4 mRNA (IL-4 mRNA; Subject 1)	ΔΔCt (mean ± standard deviation, n = 3), IL-4 mRNA (IL-4 mRNA; Subject 2)	ΔΔCt (mean ± standard deviation, n = 3), IL-4 mRNA (IL-4 mRNA; Subject 3)	ΔΔCt (mean ± standard deviation, n = 3), IL-4 mRNA (IL-4 mRNA; Subject 4)	ΔΔCt (mean ± standard deviation, n = 3), IL-4 mRNA (IL-4 mRNA; Subject 5)	ΔΔCt (mean ± standard deviation, n = 3), IL-4 mRNA (IL-4 mRNA; Subject 6)	ΔΔCt (mean ± standard deviation, n = 3), IL-4 mRNA (IL-4 mRNA; Subject 7)	effect on PHA-induced IL-4 expression, in words (IL-4 mRNA)	ΔΔCt (mean ± standard deviation, n = 3), TNFα mRNA (TNF-α mRNA; Subject 1)	ΔΔCt (mean ± standard deviation, n = 3), TNFα mRNA (TNF-α mRNA; Subject 2)	ΔΔCt (mean ± standard deviation, n = 3), TNFα mRNA (TNF-α mRNA; Subject 3)	ΔΔCt (mean ± standard deviation, n = 3), TNFα mRNA (TNF-α mRNA; Subject 4)	ΔΔCt (mean ± standard deviation, n = 3), TNFα mRNA (TNF-α mRNA; Subject 5)	also measured
COc1cc(/C=C/C(=O)CC(=O)/C=C/c2ccc(O)c(OC)c2)ccc1O [Cur., curcumin]	1.47 ± 0.59	2.51 ± 0.23	0.31 ± 0.14	0.33 ± 0.27	0.03 ± 0.20	0.01 ± 0.14	−0.01 ± 0.21	1.27 ± 0.78	3.09 ± 0.15	−0.01 ± 0.07	0.10 ± 0.27	0.00 ± 0.20	0.10 ± 0.13	0.52 ± 0.26	significantly decreased IL-2, IL-4, and TNF-α expression in 2 cases	3.52 ± 1.84	3.64 ± 2.26	0.83 ± 0.60	0.45 ± 0.15	0.13 ± 0.17	effect on PHA-induced IL-2 expression, in words (IL-2 mRNA): significantly decreased IL-2, IL-4, and TNF-α expression in 2 cases; ΔΔCt (mean ± standard deviation, n = 3), TNFα mRNA (TNF-α mRNA; Subject 6): 0.07 ± 0.01; ΔΔCt (mean ± standard deviation, n = 3), TNFα mRNA (TNF-α mRNA; Subject 7): 0.12 ± 0.21; effect on PHA-induced TNF-α expression, in words (TNF-α mRNA): significantly decreased IL-2, IL-4, and TNF-α expression in 2 cases
O=C(O[C@@H]1Cc2c(O)cc(O)cc2O[C@@H]1c1cc(O)c(O)c(O)c1)c1cc(O)c(O)c(O)c1 [EGCG, epigallocatechin gallate]	−0.1 ± 0.02	−0.67 ± 0.48	1.32 ± 0.54	0.81 ± 0.11	−0.99 ± 0.33	1.1 ± 0.14	−0.41 ± 0.29	−1.83 ± 0.20	−1.56 ± 0.46	−0.82 ± 0.34	0.92 ± 0.25	−1.37 ± 0.3	−0.9 ± 0.01	−1.47 ± 0.41	enhanced PHA-induced IL-4 expression in all 7 cases	−1.14 ± 0.32	−0.63 ± 0.66	0.33 ± 0.62	−0.16 ± 0.12	−1.22 ± 0.29	effect on PHA-induced IL-2 expression, in words (IL-2 mRNA): 3 out of 7 persons showed decreases, 1 showed an increase, and 3 were unchanged; ΔΔCt (mean ± standard deviation, n = 3), TNFα mRNA (TNF-α mRNA; Subject 6): −0.66 ± 0.14; ΔΔCt (mean ± standard deviation, n = 3), TNFα mRNA (TNF-α mRNA; Subject 7): −0.94 ± 0.46; effect on PHA-induced TNF-α expression, in words (TNF-α mRNA): showed individual variations; conclusion from CD32A mRNA levels (FIG. 2), in words [1]: would be suitable for use in this individual in a diet optimized for anti-cancer activity
O=C1O[C@H]([C@@H](O)CO)C(O)=C1O [VC, vitamin C]	−0.18 ± 0.54	0.00 ± 0.60	1.04 ± 0.21	1.47 ± 0.19	−0.80 ± 0.13	1.02 ± 0.05	0.07 ± 0.27	−2.20 ± 0.72	−0.86 ± 0.62	−0.77 ± 0.40	−0.43 ± 0.17	−1.22 ± 0.17	−0.77 ± 0.09	−1.30 ± 0.22	enhanced IL-4 expression, with 1-3 exceptions	−1.82 ± 0.65	0.10 ± 1.14	−0.04 ± 0.27	0.09 ± 0.16	−1.21 ± 0.14	ΔΔCt (mean ± standard deviation, n = 3), TNFα mRNA (TNF-α mRNA; Subject 6): −0.48 ± 0.04; ΔΔCt (mean ± standard deviation, n = 3), TNFα mRNA (TNF-α mRNA; Subject 7): −0.40 ± 0.15
CCCCC/C=C\C/C=C\C/C=C\CCCCC(=O)O [γ-linoleic acid, γ-linoleic acids]																					conclusion from CD32A mRNA levels (FIG. 2), in words [1]: would be suitable for use in this individual in a diet optimized for anti-cancer activity
vitamin E																					conclusion from CD32A mRNA levels (FIG. 2), in words [1]: would be suitable for use in this individual in a diet optimized for anti-cancer activity
